{"source": "patent US6737383B1", "about": "“Herbicidal oxadiazolidines” (priority 1999, dated 2004)", "key": {"[1]": {"tested_on": "wild oat", "assay": "Test B pre/postemergence wild oat", "type": "in vivo, Avena fatua", "summary_of_the_method": "(§1)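 Herbicidal effect was estimated by eye on a ten-point control scale after plants spent twelve to sixteen days in a greenhouse following soil or foliar treatment. Foliar sprays targeted plants at one to four leaves; all doses were formulated in a non-phytotoxic solvent with surfactant.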"}, "[2]": {"tested_on": "velvetleaf", "assay": "Test B pre/postemergence velvetleaf", "type": "in vivo, Abutilon theophrasti", "summary_of_the_method": "as §1"}, "[3]": {"tested_on": "soybean", "assay": "Test B pre/postemergence soybean", "type": "in vivo, Glycine max", "summary_of_the_method": "as §1"}, "[4]": {"tested_on": "crabgrass", "assay": "Test B pre/postemergence crabgrass", "type": "in vivo, Digitaria sanguinalis", "summary_of_the_method": "as §1"}, "[5]": {"tested_on": "rape", "assay": "Test B pre/postemergence rape", "type": "in vivo, Brassica napus", "summary_of_the_method": "as §1"}, "[6]": {"tested_on": "sugar beet", "assay": "Test B pre/postemergence sugar beet", "type": "in vivo, Beta vulgaris", "summary_of_the_method": "as §1"}, "[7]": {"tested_on": "corn", "assay": "Test B pre/postemergence corn", "type": "in vivo, Zea mays", "summary_of_the_method": "as §1"}, "[8]": {"tested_on": "pigweed", "assay": "Test B pre/postemergence pigweed", "type": "in vivo, Amaranthus retroflexus", "summary_of_the_method": "as §1"}, "[9]": {"tested_on": "blackgrass", "assay": "Test B pre/postemergence blackgrass", "type": "in vivo, Alopecurus myosuroides", "summary_of_the_method": "as §1"}, "[10]": {"tested_on": "bedstraw", "assay": "Test B pre/postemergence bedstraw", "type": "in vivo, Galium aparine", "summary_of_the_method": "as §1"}, "[11]": {"tested_on": "purple nutsedge", "assay": "Test B pre/postemergence purple nutsedge", "type": "in vivo, Cyperus rotundus", "summary_of_the_method": "as §1"}, "[12]": {"tested_on": "surinam grass", "assay": "Test B pre/postemergence surinam grass", "type": "in vivo, Brachiaria decumbens", "summary_of_the_method": "as §1"}, "[13]": {"tested_on": "wheat", "assay": "Test B pre/postemergence wheat", "type": "in vivo, Triticum aestivum", "summary_of_the_method": "as §1"}, "[14]": {"details": "Preemergence, Rate 62 g/ha, scale of 0 to 10 where 0 is no effect and 10 is complete control"}, "[15]": {"details": "Preemergence, Rate 125 g/ha, 0 is no effect, 10 is complete control"}, "[16]": {"details": "Preemergence, Rate 250 g/ha, scale 0 to 10, 0 is no effect, 10 is complete control"}, "[17]": {"details": "Preemergence, Rate 500 g/ha, scale 0 to 10 (0 no effect, 10 complete control)"}, "[18]": {"details": "Rate 250 g/ha, Postemergence, scale 0 to 10, 0 is no effect, 10 is complete control"}, "[19]": {"details": "Rate 500 g/ha, Postemergence, scale 0 to 10"}, "[20]": {"details": "Postemergence, Rate 125 g/ha, scale of 0 to 10 where 0 is no effect and 10 is complete control"}, "[21]": {"details": "Rate 62 g/ha, Postemergence, scale of 0 to 10 where 0 is no effect and 10 is complete control"}}, "data": [{"smiles": "CC1CCCCC1n1c(=O)on(C(=O)N(c2ccc(F)cc2)C(C)C)c1=O", "note": "(stereo not shown) [Compound 161]", "values": [{"measurement": "Wild oats plant response rating", "setting": "[1]; [14]", "result": 0}, {"measurement": "Wild oats plant response rating (0 to 10 scale)", "setting": "[1]; [15]", "result": 0}, {"measurement": "Wild oats plant response rating", "setting": "[1]; [16]", "result": 3}, {"measurement": "Wild oats plant response rating", "setting": "[1]; [17]", "result": 6}, {"measurement": "Plant response rating, Wild oats", "setting": "[1]; [18]", "result": 0}, {"measurement": "Wild oats plant response rating", "setting": "[1]; [19]", "result": 0}, {"measurement": "Velvetleaf plant response rating", "setting": "[2]; [14]", "result": 0}, {"measurement": "Velvetleaf plant response rating (0 to 10 scale)", "setting": "[2]; [15]", "result": 0}, {"measurement": "Velvetleaf plant response rating", "setting": "[2]; [16]", "result": 0}, {"measurement": "Velvetleaf plant response rating", "setting": "[2]; [17]", "result": 0}, {"measurement": "Plant response rating, Velvetleaf", "setting": "[2]; [18]", "result": 2}, {"measurement": "Velvetleaf plant response rating", "setting": "[2]; [19]", "result": 6}, {"measurement": "Soybean plant response rating", "setting": "[3]; [20]", "result": 2}, {"measurement": "Soybean plant response rating", "setting": "[3]; [14]", "result": 0}, {"measurement": "Soybean plant response rating (0 to 10 scale)", "setting": "[3]; [15]", "result": 0}, {"measurement": "Soybean plant response rating", "setting": "[3]; [16]", "result": 0}, {"measurement": "Soybean plant response rating", "setting": "[3]; [17]", "result": 0}, {"measurement": "Soybean plant response rating", "setting": "[3]; [21]", "result": 2}, {"measurement": "Plant response rating, Soybean", "setting": "[3]; [18]", "result": 4}, {"measurement": "Soybean plant response rating", "setting": "[3]; [19]", "result": 4}, {"measurement": "Crabgrass plant response rating", "setting": "[4]; [20]", "result": 2}, {"measurement": "Crabgrass plant response rating", "setting": "[4]; [14]", "result": 4}, {"measurement": "Crabgrass plant response rating (0 to 10 scale)", "setting": "[4]; [15]", "result": 8}, {"measurement": "Crabgrass plant response rating", "setting": "[4]; [16]", "result": 9}, {"measurement": "Crabgrass plant response rating", "setting": "[4]; [17]", "result": 9}, {"measurement": "Crabgrass plant response rating", "setting": "[4]; [21]", "result": 0}, {"measurement": "Plant response rating, Crabgrass", "setting": "[4]; [18]", "result": 7}, {"measurement": "Crabgrass plant response rating", "setting": "[4]; [19]", "result": 9}, {"measurement": "Rape plant response rating", "setting": "[5]; [20]", "result": 0}, {"measurement": "Rape plant response rating", "setting": "[5]; [14]", "result": 0}, {"measurement": "Rape plant response rating (0 to 10 scale)", "setting": "[5]; [15]", "result": 0}, {"measurement": "Rape plant response rating", "setting": "[5]; [16]", "result": 0}, {"measurement": "Rape plant response rating", "setting": "[5]; [17]", "result": 3}, {"measurement": "Rape plant response rating", "setting": "[5]; [21]", "result": 0}, {"measurement": "Plant response rating, Rape", "setting": "[5]; [18]", "result": 0}, {"measurement": "Rape plant response rating", "setting": "[5]; [19]", "result": 4}, {"measurement": "Sugarbeets plant response rating", "setting": "[6]; [20]", "result": 2}, {"measurement": "Sugarbeets plant response rating", "setting": "[6]; [14]", "result": 0}, {"measurement": "Sugarbeets plant response rating (0 to 10 scale)", "setting": "[6]; [15]", "result": 0}, {"measurement": "Sugarbeets plant response rating", "setting": "[6]; [16]", "result": 0}, {"measurement": "Sugarbeets plant response rating", "setting": "[6]; [17]", "result": 0}, {"measurement": "Sugarbeets plant response rating", "setting": "[6]; [21]", "result": 0}, {"measurement": "Plant response rating, Sugarbeets", "setting": "[6]; [18]", "result": 4}, {"measurement": "Sugarbeets plant response rating", "setting": "[6]; [19]", "result": 7}, {"measurement": "Corn plant response rating", "setting": "[7]; [20]", "result": 0}, {"measurement": "Corn plant response rating", "setting": "[7]; [14]", "result": 0}, {"measurement": "Corn plant response rating (0 to 10 scale)", "setting": "[7]; [15]", "result": 0}, {"measurement": "Corn plant response rating", "setting": "[7]; [16]", "result": 0}, {"measurement": "Corn plant response rating", "setting": "[7]; [17]", "result": 0}, {"measurement": "Corn plant response rating", "setting": "[7]; [21]", "result": 0}, {"measurement": "Plant response rating, Corn", "setting": "[7]; [18]", "result": 0}, {"measurement": "Corn plant response rating", "setting": "[7]; [19]", "result": 0}, {"measurement": "Redroot pigweed plant response rating", "setting": "[8]; [20]", "result": 0}, {"measurement": "Redroot pigweed plant response rating", "setting": "[8]; [14]", "result": 0}, {"measurement": "Redroot pigweed plant response rating (0 to 10 scale)", "setting": "[8]; [15]", "result": 0}, {"measurement": "Redroot pigweed plant response rating", "setting": "[8]; [16]", "result": 4}, {"measurement": "Redroot pigweed plant response rating", "setting": "[8]; [17]", "result": 10}, {"measurement": "Redroot pigweed plant response rating", "setting": "[8]; [21]", "result": 0}, {"measurement": "Plant response rating, Redroot pigweed", "setting": "[8]; [18]", "result": 4}, {"measurement": "Redroot pigweed plant response rating", "setting": "[8]; [19]", "result": 5}, {"measurement": "Blackgrass plant response rating", "setting": "[9]; [20]", "result": 0}, {"measurement": "Blackgrass plant response rating", "setting": "[9]; [14]", "result": 3}, {"measurement": "Blackgrass plant response rating", "setting": "[9]; [16]", "result": 7}, {"measurement": "Blackgrass plant response rating", "setting": "[9]; [17]", "result": 9}, {"measurement": "Blackgrass plant response rating", "setting": "[9]; [21]", "result": 0}, {"measurement": "Plant response rating, Blackgrass", "setting": "[9]; [18]", "result": 3}, {"measurement": "Blackgrass plant response rating", "setting": "[9]; [19]", "result": 4}, {"measurement": "Bedstraw plant response rating", "setting": "[10]; [20]", "result": 3}, {"measurement": "Bedstraw plant response rating", "setting": "[10]; [14]", "result": 0}, {"measurement": "Bedstraw plant response rating (0 to 10 scale)", "setting": "[10]; [15]", "result": 0}, {"measurement": "Bedstraw plant response rating", "setting": "[10]; [16]", "result": 0}, {"measurement": "Bedstraw plant response rating", "setting": "[10]; [17]", "result": 0}, {"measurement": "Bedstraw plant response rating", "setting": "[10]; [21]", "result": 0}, {"measurement": "Plant response rating, Bedstraw", "setting": "[10]; [18]", "result": 4}, {"measurement": "Bedstraw plant response rating", "setting": "[10]; [19]", "result": 4}, {"measurement": "Nutsedge plant response rating", "setting": "[11]; [20]", "result": 0}, {"measurement": "Nutsedge plant response rating", "setting": "[11]; [14]", "result": 0}, {"measurement": "Nutsedge plant response rating (0 to 10 scale)", "setting": "[11]; [15]", "result": 0}, {"measurement": "Nutsedge plant response rating", "setting": "[11]; [16]", "result": 0}, {"measurement": "Nutsedge plant response rating", "setting": "[11]; [17]", "result": 0}, {"measurement": "Nutsedge plant response rating", "setting": "[11]; [21]", "result": 0}, {"measurement": "Plant response rating, Nutsedge", "setting": "[11]; [18]", "result": 0}, {"measurement": "Nutsedge plant response rating", "setting": "[11]; [19]", "result": 0}, {"measurement": "B. signalgrass plant response rating", "setting": "[12]; [20]", "result": 0}, {"measurement": "B. signalgrass plant response rating", "setting": "[12]; [14]", "result": 0}, {"measurement": "B. signalgrass plant response rating (0 to 10 scale)", "setting": "[12]; [15]", "result": 0}, {"measurement": "B. signalgrass plant response rating", "setting": "[12]; [16]", "result": 5}, {"measurement": "B. signalgrass plant response rating", "setting": "[12]; [17]", "result": 5}, {"measurement": "B. signalgrass plant response rating", "setting": "[12]; [21]", "result": 0}, {"measurement": "Plant response rating, B. signalgrass", "setting": "[12]; [18]", "result": 2}, {"measurement": "B. signalgrass plant response rating", "setting": "[12]; Rate 500 g/ha, Postemergence, scale 0 to 10, 0 no effect, 10 complete control", "result": 7}, {"measurement": "Wheat plant response rating", "setting": "[13]; [14]", "result": 0}, {"measurement": "Wheat plant response rating (0 to 10 scale)", "setting": "[13]; [15]", "result": 0}, {"measurement": "Wheat plant response rating", "setting": "[13]; [16]", "result": 0}, {"measurement": "Wheat plant response rating", "setting": "[13]; [17]", "result": 2}, {"measurement": "Plant response rating, Wheat", "setting": "[13]; [18]", "result": 0}, {"measurement": "Wheat plant response rating", "setting": "[13]; [19]", "result": 0}]}]}
